From patent US12351819B2, “Method for removing undifferentiated pluripotent stem cells” (priority 2017, dated 2025)

Tests used:
[1] = system: hiPSC-derived endothelial cells; assay: LDH cytotoxicity assay in hiPSC-derived endothelial cells; format: cell-based, human; conditions: 2.5 μM, 24 hours
Procedure: The released LDH was measured using CytoTox 96 Non-Cytotoxicity assay according to the manufacture's instruction (Promega, Southampton, UK). The supernatants and reagents were incubated at room temperature for 20 minutes and then the reaction was stopped by Stop Solution. The absorbance at 490 nm was measured using a plate-reading spectrophotometer (Benchmark Plus Microplate Spectrophotometer System, BIO-RAD, CA, USA).

[2] = system: hBMMSCs; assay: Chondrogenic induction and Alcian blue assay; format: cell-based, human; conditions: 2.5 μM 24 hours, drug removed; Alcian blue O.D 650 nm
Procedure: Next, drugs were removed, and 1×10^5 cells were seeded in 96-well U-bottom culture plated. After 24 hours, we changed the complete MSCgo™ Chondrogenic medium (Biological Industries) for 21 days. The media were changed every 3-4 days. Next, the pelleted cells were fixed with 4% formaldehyde for 1 hours, washed twice with ddH2O, and stained with a 1% Alcian blue solution in 0.1N HCl for 30 min. For Alcian Blue elution, we added […] Guanidine HCL solution and incubated overnight at RT. The absorbance at 650 nm was detected.

[3] = system: H9 hESC-MSCs; assay: Cell morphology under bright field, H9 hESC-MSCs; format: cell-based, human; conditions: 2.5 μM, 12 hours and 24 hours
[4] = system: hiPSCs; conditions: for cytotoxicity (LDH release) in hiPSCs: 2.5 μM, 24 hours; for LDH assay positive, hiPSCs: Table 1
Procedure: The supernatants of cells treated with digoxin […], lanatoside C 2.5 μm, or DMSO solvent control for 24 hours were harvested. The released LDH was measured using CytoTox 96 […] assay according to the manufacture's instruction (Promega, Southampton, UK). The supernatants and reagents were incubated at room temperature for 20 minutes and then the reaction was stopped by Stop Solution. The absorbance at 490 nm was measured using a plate-reading spectrophotometer (Benchmark Plus Microplate Spectrophotometer System, BIO-RAD, CA, USA).
hiPSC-derived endothelial cells were prepared according in a previous report^34. The hiPSCs were maintained in mTeSR 1 medium ([…] Technologies, Vancouver, Canada) on VTN-N coated plates (Thermo, Wilmington, DE, USA). First, for the stepwise induction of differentiation, we performed a mesoderm induction of hiPSCs seeded in mesoderm induction medium for 48 hours (basal medium with […], […], and 2 ng/ml of Activin A; basal medium was composed of 12 g/L of DMEM/F-12, 3.56 g/L of HEPES, 1.742 g/L of sodium bicarbonate, 14 μg/L of sodium selenite, 10.7 mg/L of recombinant transferrin, 19.4 mg/L of recombinant insulin, and 64 mg/L of L-Ascorbic acid 2-phosphate sesquimagnesium salt hydrate). Second, for the mesoderm to endothelium transition, mesoderm cells were reseeded in vasculogenic medium (basal medium with 2 mg/ml of PVA plus 20 ng/ml of hVEGF-A) for an additional 72 hours. All differentiated cells were plated on VTN pre-coated culture plate dishes. The endothelial cells were analyzed on day 5 by flow cytometry staining with the CD31 (PECAM1, ThermoFisher Scientific, Wilmington, DE, USA) and CD144 (CDH5, ThermoFisher Scientific) antibodies.

[5] = system: hBMMSCs; assay: Osteogenic differentiation and Alizarin Red S staining; format: cell-based, human; conditions: 2.5 μM 24 hours, drug removed; Alizarin Red S O.D 570 nm
Procedure: Drugs were removed, and the cells were washed with PBS and cultured in MSCgo™ Osteogenic Differentiation medium (Biological Industries, Kibbutz Beit-Haemek, Israel)^31. The media changed twice per week for 14-21 days. Next, the cells were fixed with ice-cold 70% ethanol at −20° C. for 1 hour. After washing with water for three times, the cells were then stained with 40 mM Alizarin Red S (ARS) (pH 4.2) at room temperature for 10 minutes. The cells were then washed with PBS for five times. An Olympus CK-40 microscope was used to take the images. For quantification, the dye was extracted with 10% (w/v) cetylpyridinium chloride (Sigma 0732) in sodium phosphate buffer (pH 7.0) for 15 minutes, and the O.D. at 570 nm was measured.

[6] = system: hBMMSCs; assay: Cell morphology under bright field, hBMMSCs; format: cell-based, human; conditions: 2.5 μM, 12 hours and 24 hours
Excerpt: Scale bar: 500 μm. […] The samples were normalized to the DMSO-treated hESCs. ***P<0.001; **P<0.01; n.s. not significant. Data are shown as the mean SD.

[7] = system: hESCs; assay: Alamar blue assay, hESCs; format: cell-based, human; conditions: FIG. 12
Procedure: Alamar blue assay measured the relative cell number. In the cells, we added 1/10 of Alamar Blue Viability Assay reagent to the total volume of the mixture (Biotium; Fremont, CA, USA). The cells were incubated overnight at 37° C. The resulted were quantified by the measurement of optical density (OD) absorbance values at 570 nm and 600 nm, and the relative cell number was calculated.

[8] = system: HUES6 hESCs; assay: Cell colony and morphology under bright field, HUES6; format: cell-based, human; conditions: 2.5 μM, 12 hours and 24 hours
Excerpt: Cells became round and died. […] Data are shown as the mean SD.

[9] = system: hBMMSCs; assay: Adipogenesis and Oil Red O assay; format: cell-based, human; conditions: 2.5 μM 24 hours, drug removed; oil red O.D 510 nm
Procedure: Next, drugs were removed, and the cells were cultured in MSCgo™ Adipogenic Differentiation Medium (Biological Industries). The media was changed every 3-4 days for 8-12 days. After the adipogenic induction, we replaced the MSCgo™ Adipogenic complete medium with MSC maintenance medium for 6-9 days. The cells were carefully fixed with 4% formaldehyde for 1 hour at room temperature, washed with 60% isopropanol, and air-dried. The lipid drops were stained with Oil Red O working solution (30 ml 0.35% oil red solution in isopropanol diluted with 20 ml of distilled water) for 10 minutes. Next, the cells were washed with water 4 times. For quantification, Oil Red O stain was extracted with 100% isopropanol, and the absorbance at 510 nm was detected.

[10] = system: cleaved PARP, caspase-3, caspase-7 in hBMMSCs; assay: Western blot of apoptotic markers, hBMMSCs; format: cell-based, human; conditions: 2.5 μM, 12 hours
Procedure: RIPA buffer was used to harvest cell lysates (RIPA buffer: NaCl 150 mM, Tris pH 8.0 50 mM, EDTApH 8.0 5 mM, NP-40 1.0%, SDS 0.5%, sodium deoxycholate 0.1%). Western blot analyses were performed as previously described with different types of primary antibodies^29. The primary antibody includes anti-β-actin (A5441; Sigma), anti-Oct4 (sc-9081; Santa Cruz Biotechnology, Santa Cruz, CA, USA), anti-Nanog (3580; Cell Signaling Technology, Danvers, MA, USA), apoptosis antibody kit (9915; Cell Signaling Technology), ATP1A1 (3010; Cell Signaling Technology), and ATP1A2 (16836-1-AP; Proteintech™) were used. After reaction at 4° C. overnight, the blots were incubated with goat anti-mouse- or goat anti-rabbit antibody conjugated with horseradish peroxidase (Jackson ImmunoResearch Inc). The chemiluminescent substrate (WBKLS0500; Millipore, Darmstadt, Germany) was used to detect the blots. Fujifilm LAS-4000 (FUJIFILM, Tokyo, Japan) was used to take the images.

SMILES	survival of hiPSC-derived endothelial cells (LDH release) [1]	differentiation ability of hBMMSCs into chondrocytes [2]	cell death (bright field morphology) in H9 hESC-MSCs [3]	cytotoxicity (LDH release) in hiPSCs [4]	LDH assay positive, hiPSCs [4]	differentiation ability of hBMMSCs into osteoblasts [5]	survival of hBMMSCs (bright field morphology) [6]	cell death in hESCs (Alamar blue, relative cell number) [7]	cell death (bright field morphology) in HUES6 [8]	differentiation ability of hBMMSCs into adipocytes [9]	cleaved form of apoptosis markers in hBMMSCs [10]
CC(=O)O[C@H]1C[C@H](O[C@H]2[C@@H](O)C[C@H](O[C@H]3[C@@H](O)C[C@H](O[C@H]4CC[C@@]5(C)[C@H](CC[C@@H]6[C@@H]5C[C@@H](O)[C@]5(C)[C@@H](C7=CC(=O)OC7)CC[C@]65O)C4)O[C@@H]3C)O[C@@H]2C)O[C@H](C)[C@H]1O[C@@H]1O[C@H](CO)[C@@H](O)[C@H](O)[C@H]1O [Lanatoside C, lanatoside C]	remained alive	neither digoxin nor lanatoside C affected the differentiation ability	Neither digoxin (2.5 μM) nor lanatoside C (2.5 μM) induced cell death	induced cytotoxicity	+++ (more than 70% positive cells)	neither digoxin nor lanatoside C affected the differentiation ability	did not affect the survival	dose dependent manner	induced cell death	neither digoxin nor lanatoside C affected the differentiation ability	no cleaved form of the apoptosis markers was detected
C[C@H]1O[C@@H](O[C@H]2[C@@H](O)C[C@H](O[C@H]3[C@@H](O)C[C@H](O[C@H]4CC[C@@]5(C)[C@H](CC[C@@H]6[C@@H]5C[C@@H](O)[C@]5(C)[C@@H](C7=CC(=O)OC7)CC[C@]65O)C4)O[C@@H]3C)O[C@@H]2C)C[C@H](O)[C@@H]1O [Digoxin, digoxin]	remained alive	neither digoxin nor lanatoside C affected the differentiation ability	Neither digoxin (2.5 μM) nor lanatoside C (2.5 μM) induced cell death	induced cytotoxicity	+++ (more than 70% positive cells)	neither digoxin nor lanatoside C affected the differentiation ability	did not affect the survival	dose dependent manner	induced cell death	neither digoxin nor lanatoside C affected the differentiation ability	no cleaved form of the apoptosis markers was detected
